{"source": "paper PMC5797931", "about": "(Frontiers in Pharmacology, 2018)", "key": {"[1]": {"assay": "in vivo", "parameters": "species or system piglets (Landrace × large white)", "conditions": "male, Landrace × large white (Seghers Hybrid), pig, 120 ug", "experimental": "The current study was approved by the ethical committee of the Faculties of Veterinary Medicine and Bioscience Engineering of Ghent University (EC2014/184). Care and use of animals was in full compliance with the national (Belgian Royal Decree, [2013]) and European legislation (Anonymous, [2010]). […] Opti®, 6 months: […], Leuven, Belgium) and drinking water. Natural light was provided by translucent windows and the stable temperature was 23.2 ± 0.56°C. Higher temperatures were obtained in the rescue decks through heating lamps. In all age groups, a double lumen catheter was placed in the jugular vein according to Gasthuys et al. ([2017b]). After surgery, the piglets were housed individually to avoid displacement of the catheters. During single housing, a cotton towel was added to the decks and stables to mimic the smell of the other piglets. During the experiments, the stables were enriched with hanging chains, rubber toys and balls of different sizes. The environmental enrichment was rotated daily. […] Afterwards, the snout was closed during 30 s to ensure full dissolution of the lyophilisate. […] The CT-scans were processed using VGStudioMax (Volume Graphics GmbH, Heidelberg, Germany) and the body surface area (BSA) was determined after visualization and selection of the body surface in 3D (UGCT-Department of Physics and Astronomy, Ghent University, Ghent, Belgium). The GFR was determined as the clearance of the exogenous marker exo-iohexol (Gasthuys et al., [2017a]). […] Desmopressin plasma concentrations were determined at Aarhus University Hospital (Aarhus, Denmark) using a validated radioimmunoassay method as described by Emmeluth et al. […] Subsequently, based on a visual exploration of the plasma concentration-time profiles obtained in the growing piglets, a two-compartmental disposition model and a dual-input were evaluated to describe the absorption of the sublingual desmopressin lyophilisate. […]"}, "[2]": {"conditions": "human, in vivo; cited from earlier work"}}}
{"molecule": "NC(=O)CC[C@@H]1NC(=O)[C@H](Cc2ccccc2)NC(=O)[C@H](Cc2ccc(O)cc2)NC(=O)CCSSC[C@@H](C(=O)N2CCC[C@H]2C(=O)N[C@H](CCCN=C(N)N)C(=O)NCC(N)=O)NC(=O)[C@H](CC(N)=O)NC1=O", "note": "[desmopressin, 1-desamino-8-D-arginine vasopressin]", "values": [{"measurement": "CL/F", "setting": "[1]", "result": 6580, "unit": "mL/min"}, {"measurement": "Vd/F", "setting": "[1]", "result": 131, "unit": "L"}, {"measurement": "Cmax", "setting": "[1]; po", "result": "~0.25", "unit": "ng/mL"}, {"measurement": "F, absolute oral bioavailability", "setting": "[2]", "result": "< 1", "unit": "%"}]}
